In patent EP0655506B1 (priority 1994, dated 1995):

Legend:
[1] = biological target: T1, E. coli DNA polymerase I (Klenow fragment) F762Y (Escherichia coli, UniProt P00582, F762Y); experiment: Gel electrophoresis-based rate of incorporation of dideoxynucleotides relative to deoxynucleotides, 1:1 ratio of dNTPs to ddNTPs (Example 6); assay type: biochemical; conditions: for D, discrimination factor (ratio of the use of a specific dNTP to the use of the comparable ddNTP at equal concentrations): 100 µM 4dNTPs and 100 µM of one ddNTP, 5 mM MgCl2, 37 °C; for Incorporation Rate Ratios (dN/ddN): absolute ratios obtained in Example 6 (1:1 dNTPs to ddNTPs)
T1 construct: The large fragment of E. coli DNA polymerase I, commonly called the Klenow fragment; made in house; T7 RNA polymerase promoter; purified by ion exchange chromatography
Description: (§1) The primary application of this test is to determine the absolute ratio of incorporation of a ddNMP to a dNMP for a DNA polymerase that efficiently incorporates dideoxynucleotides, such as T7 DNA polymerase, E. coli DNA polymerase I mutant F762Y or Taq DNA polymerase mutant F667Y. It can also indicate the level of discrimination against ddNTPs of any DNA polymerase; however, for DNA polymerases that discriminate strongly against ddNTPs, such as T7 DNA polymerase mutant Y526F, E. coli DNA polymerase I or Taq DNA polymerase, higher ratios of ddNTP to dNTP are necessary to determine precisely their level of discrimination, which is described in detail in Example 7.
(§2) DNA synthesis reactions are carried out on the ^32P-end labeled 40 mer-M 13 mGP1-2 DNA template complex prepared as described in Example 3. Reaction conditions are used that are optimum for the DNA polymerase being tested with regard to buffer, pH, salts, and temperature of the reaction. A concentration of DNA polymerase is chosen whereby most of the primers are extended in a 10 min reaction and are terminated by the incorporation of a dideoxynucleotide. The reaction mixture contains 100 µM 4dNTPs and 100 µM of one of the four ddNTPs.
(§3) We used this test to compare the ability of six DNA polymerases to incorporate each of the four ddNMPs. The DNA polymerases tested were (1) T7 DNA polymerase with a 28 amino acid deletion in the exonuclease domain and complexed in a one-to-one ratio with thioredoxin (Tabor and Richardson 264 J. Biol. Chem. 6447, 1989) (referred to here as "T7 DNA polymerase"), (2) The large fragment of E. coli DNA polymerase I, commonly called the Klenow fragment (referred to here as "E. coli DNA polymerase I"), (3) Unmodified DNA polymerase from Thermus aquaticus (referred to here as "Taq DNA polymerase"), (4) T7 DNA polymerase as described above in which the tyrosine at residue 526 has been changed to a phenylalanine (referred to here as "T7 DNA polymerase Y526F"), (5) E. coli DNA polymerase I as described above in which the phenylalanine at residue 762 has been changed to a tyrosine (referred to here as "E. coli DNA polymerase I F762Y"), and (6) Taq DNA polymerase as described above in which the phenylalanine at residue 667 has been changed to a tyrosine (referred to here as "Taq DNA polymerase F667Y").
(§4) The reaction mixtures also contained 10 ng of yeast inorganic pyrophosphatase to inhibit pyrophosphorolysis that could otherwise increase the apparent discrimination by the DNA polymerase (Tabor and Richardson 265 j. Biol. Chem. 8322, 1990). The reactions were initiated by the addition of 2 µl of each DNA polymerase, diluted in 20 mM TrisHCl, pH 7.5, 10 mM 2-mercaptoethanol and 0.05% bovine serum albumin to a concentration of approximately 0.025 units/µl. The concentration of each DNA polymerase was sufficient to extend most of the labeled primers by more than 500 nucleotides in the absence of ddNTPs in a 15 min reaction. The reaction mixtures were incubated for 15 min at either 37 °C (T7 DNA polymerase, T7 DNA polymerase Y526F, E. coli DNA polymerase I, and E. coli DNA polymerase F762Y) or 70 °C (Taq DNA polymerase and Taq DNA polymerase F667Y). The reactions were terminated by the addition of 10 µl 90% formamide, 20 mM EDTA, 0.05% bromphenol blue. Each sample was heated at 90°C for 2 min immediately prior to loading 6 µl of each sample onto a gel consisting of 8% polyacrylamide, 0.4% N,N'-methylenebisacrylamide, 7 M urea in 100 mM Trisborate, pH 8.3, 1 mM EDTA. Electrophoresis was at 2000 Volts for 90 min (until the bromphenol blue had just run off the bottom of the gel). After electrophoresis, the gel was dried under vacuum, and autoradiographed. After autoradiography, the distribution of radioactively labeled fragments was determined by Phosphorimager analysis (Molecular Dynamics). […]

Taq DNA polymerase F667Y = biological target: T2, Taq DNA polymerase F667Y (Thermus aquaticus, UniProt P19821, F667Y); experiment: as above; assay type: biochemical; conditions: for D, discrimination factor (ratio of the use of a specific dNTP to the use of the comparable ddNTP at equal concentrations): 100 µM 4dNTPs and 100 µM of one ddNTP, 5 mM MgCl2, 70 °C; for Incorporation Rate Ratios (dN/ddN): absolute ratios obtained in Example 6 (1:1 dNTPs to ddNTPs)
T2 construct: to the gene that produces the full length Taq DNA polymerase; made in house
Description: as §1, §2, §3, §4

T1 sequence (P00582 324-928 F762Y): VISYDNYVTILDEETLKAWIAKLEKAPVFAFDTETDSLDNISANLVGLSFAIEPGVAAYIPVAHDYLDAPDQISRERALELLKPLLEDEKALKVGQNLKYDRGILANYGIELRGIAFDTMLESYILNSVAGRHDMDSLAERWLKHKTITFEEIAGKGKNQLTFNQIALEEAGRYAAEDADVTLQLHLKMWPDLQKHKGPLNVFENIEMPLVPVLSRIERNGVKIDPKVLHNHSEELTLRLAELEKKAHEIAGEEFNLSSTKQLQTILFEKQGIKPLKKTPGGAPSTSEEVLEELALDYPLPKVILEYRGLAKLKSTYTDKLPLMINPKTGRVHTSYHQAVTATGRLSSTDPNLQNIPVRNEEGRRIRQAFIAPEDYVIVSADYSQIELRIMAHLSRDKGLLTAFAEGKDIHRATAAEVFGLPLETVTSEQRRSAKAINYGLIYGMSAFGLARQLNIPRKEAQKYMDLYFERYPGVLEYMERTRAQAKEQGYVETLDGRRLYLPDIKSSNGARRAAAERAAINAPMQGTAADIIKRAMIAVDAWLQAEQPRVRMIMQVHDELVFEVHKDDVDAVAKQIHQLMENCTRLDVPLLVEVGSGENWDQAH
T2 sequence (P19821 whole entry F667Y): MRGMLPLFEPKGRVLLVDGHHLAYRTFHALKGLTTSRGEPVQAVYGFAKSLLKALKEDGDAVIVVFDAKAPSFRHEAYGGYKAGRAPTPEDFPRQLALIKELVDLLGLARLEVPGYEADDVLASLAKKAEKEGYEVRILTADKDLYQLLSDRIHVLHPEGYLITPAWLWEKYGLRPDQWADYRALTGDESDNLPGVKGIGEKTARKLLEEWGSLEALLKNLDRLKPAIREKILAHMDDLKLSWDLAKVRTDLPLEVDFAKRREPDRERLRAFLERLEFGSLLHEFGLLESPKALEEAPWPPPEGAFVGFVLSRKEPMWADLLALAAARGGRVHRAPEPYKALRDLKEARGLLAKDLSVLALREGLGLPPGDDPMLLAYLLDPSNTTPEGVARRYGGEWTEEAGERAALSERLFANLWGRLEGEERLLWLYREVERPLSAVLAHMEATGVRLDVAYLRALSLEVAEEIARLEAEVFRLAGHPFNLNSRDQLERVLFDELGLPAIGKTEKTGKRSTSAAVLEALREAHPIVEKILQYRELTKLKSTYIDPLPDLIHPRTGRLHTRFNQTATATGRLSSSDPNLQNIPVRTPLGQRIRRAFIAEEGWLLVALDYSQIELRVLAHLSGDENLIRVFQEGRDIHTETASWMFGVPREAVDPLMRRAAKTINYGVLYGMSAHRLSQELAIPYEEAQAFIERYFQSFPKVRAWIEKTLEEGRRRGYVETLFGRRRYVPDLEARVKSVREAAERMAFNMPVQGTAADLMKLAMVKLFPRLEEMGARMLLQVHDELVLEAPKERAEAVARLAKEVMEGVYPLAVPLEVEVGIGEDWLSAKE

| SMILES | D, discrimination factor (ratio of the use of a specific dNTP to the use of the comparable ddNTP at equal concentrations) [1] | Incorporation Rate Ratios (dN/ddN) [1] | D, discrimination factor (ratio of the use of a specific dNTP to the use of the comparable ddNTP at equal concentrations) (Taq DNA polymerase F667Y) | Incorporation Rate Ratios (dN/ddN) (Taq DNA polymerase F667Y) |
| --- | --- | --- | --- | --- |
| Nc1ncnc2c1ncn2[C@H]1CC[C@@H](COP(=O)(O)OP(=O)(O)OP(=O)(O)O)O1 [ddATP] | 0.72 | 0.72 | 0.59 | 0.59 |
| Nc1ccn([C@H]2CC[C@@H](COP(=O)(O)OP(=O)(O)OP(=O)(O)O)O2)c(=O)n1 [ddCTP] | 0.75 | 0.75 | 0.32 | 0.32 |
| Nc1nc2c(ncn2[C@H]2CC[C@@H](COP(=O)(O)OP(=O)(O)OP(=O)(O)O)O2)c(=O)[nH]1 [ddGTP] | 0.56 | 0.56 | 0.45 | 0.45 |
| Cc1cn([C@H]2CC[C@@H](COP(=O)(O)OP(=O)(O)OP(=O)(O)O)O2)c(=O)[nH]c1=O [ddTTP] | 0.54 | 0.54 | 0.56 | 0.56 |
